Source: patent publication US9375456B2, “Antiviral composition containing an Aleurites fordii or Daphne kiusiana extract or a fraction thereof as an active ingredient” (priority 2009, dated 2016)

Test system: NK92 cells
Assay: Dependence of Aleurites fordii extract-induced IFN-γ production on NF-κB/PKC signaling
Format: cell-based, human
Details: NK92 cells treated with inhibitor along with Aleurites fordii extract, FIG. 9

In the case of `CC(=O)c1c(O)c(C)c(O)c(Cc2c(O)c3c(c(C(=O)/C=C/c4ccccc4)c2O)OC(C)(C)C=C3)c1O` [rotterin], the “induction of IFN-γ production by the Aleurites fordii extract” value is reported as “reduced”.
